Test system: HL-60 cells
Experiment: Apoptosis of HL-60 cells, DAPI staining of nuclear chromatin
Type: cell-based
Details: for Apoptic Cell Percentage: 24 hours; for Initiation of apoptosis: DAPI staining
Description: Morphological changes in the nuclear chromatin of HL-60 cells undergoing apoptosis were detected by staining with 4′,6-diamidino-2-phenylindole (DAPI). In brief, 0.5×10^6 to 3×10^6 cells were fixed with 4% glutaraledebyde, 0.2% Triton x-100, in PBS and incubated at room temperature for 10 min., then centrifuged at 1000×g for 10 min., resuspended in 20 μl 0.1% DAPI ethanol. Following 15 min, incubation at room temperature, at 10 μl aliquot was placed on a glass slide, and 400 cells per slide were scored for the incidence of apoptotic chromatin changes with a fluorescence microscope.

[1] = 20 μM in DMSO, two trials, result for each trial shown

Compound | Apoptic Cell Percentage [1] [%] | Apoptic Cell Percentage (50 μM in DMSO) [%] | Initiation of apoptosis
1,3-dihydro-4,5-dimethoxy-1-[1-(8-methoxy-2-methyl-6,7-methylenedioxy-1,2,3,4-tetrahydroisoquinoliyl)]isobenzofuran-BH3 [Compound 3] | 37.28 | 39 | initiate apoptosis
COc1ccc2c(c1OC)CO[C@@H]2[C@H]1c2c(cc3c(c2OC)OCO3)CCN1C [Compound 4, 1,3-dihydro-4,5-dimethoxy-1-[1-(8-methoxy-2-methyl-6,7-methylenedioxy-1,2,3,4-tetrahydroixo-quinolinyl)]isobenzofuran] | 48.32 | 52 | initiate apoptosis

— patent US7090853B2, “Noscapine derivatives as adjuvant compositions and methods of use thereof” (Emory University, priority 1999, dated 2006)
